Biological target: T1, NDM-1 (Klebsiella pneumoniae, UniProt C7C422)
T1 construct: purchased RayBiotech, Inc. 230-00554
Experiment: β-lactamase inhibition assay (imipenem)
Assay type: biochemical
Settings: imipenem substrate; read-out: BLi, IC50 NDM-1
Procedure: Recombinant AmpC, OXA-48 (residues 23–265) and VIM-2 (residues 27–266) were prepared from Escherichia coli based on previously established protocols. KPC-2 and NDM-1 are commercially available from LifeSpan Biosciences, Inc., Seattle, WA, USA (LS-G26598) and RayBiotech, Inc., Peachtree Corners, GA, USA (230-00554), respectively. For β-lactamase inhibition assay, in a 96-well plate, 70–0.1 μM (in PBS) of the synthesized compounds (1~14) (100 μL) were mixed with diluted β-lactamase stock (2% DMSO in 200 μL). In a separate 96-well plate, a substrate of AmpC, KPC-2, OXA-48, and VIM-2 (nitrocefin) and NDM-1 (imipenem) were added into each well (final concentrations of 70 μM for nitrocefin and 100 μM for imipenem). After incubation at 37 °C for 20 min, the mixture of the synthesized compounds (1~14) and β-lactamase in one plate was added to the substrate in the other plate. Enzymatic hydrolysis of the substrate was then monitored by a Cytation 5 imaging multimode reader (BioTek Instruments Inc., Winooski, VT, USA) at 486 nm and 300 nm for nitrocefin and imipenem, respectively, for 15 min. The rates of hydrolysis in the presence of the inhibitors were determined when the reaction rate plateaued. Comparison of the enzymatic hydrolysis rates in the presence and the absence of inhibitors (100%) provided the percentage of enzyme inhibition at each concentration of the synthesized compounds. The IC50 values were obtained after non-linear regression (sigmoidal dose-responses) by GraphPad Prism 5 (GraphPad Software, Boston, MA, USA).

T1 sequence (C7C422 29-270, looked up, species assumed): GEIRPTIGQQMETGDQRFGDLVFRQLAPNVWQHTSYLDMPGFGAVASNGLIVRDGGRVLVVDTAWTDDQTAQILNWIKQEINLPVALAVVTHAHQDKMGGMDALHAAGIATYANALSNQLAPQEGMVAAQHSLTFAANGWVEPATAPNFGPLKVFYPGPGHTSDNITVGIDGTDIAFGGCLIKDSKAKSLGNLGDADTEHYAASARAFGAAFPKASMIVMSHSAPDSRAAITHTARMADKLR

Structure (SMILES): CC(C)(C)CCOc1c(-c2ccc(F)c(F)c2)oc2cc(OCC(=O)O)cc(O)c2c1=O [Compound 5, 2-((2-(3,4-Difluorophenyl)-3-(3,3-dimethylbutoxy)-5-hydroxy-4-oxo-4H-chromen-7-yl)oxy)acetic Acid]
- IC50: 6.1 ± 0.4 µM

Source: paper PMC11672637, “7-O-Carboxylic Acid-Substituted 3-O-Alkyl Difluoroquercetin; An Aztreonam-Potentiating Agent Against Carbapenemase-Producing Pseudomonas aeruginosa Through Simultaneous Inhibition of Metallo-β-Lactamase and Efflux Pump” (Antibiotics, 2024)
